# Experimental data taken from patent US20240299385A1 (ReWind Therapeutics NV, priority 2021, published 2024).
# Target: T1, human GPR17 receptor (Homo sapiens, UniProt Q13304)
# T1 construct: host or cells: HEK-293
# Experiment: Calcium mobilization functional assay (Fluo-8, FLIPR TETRA) in HEK-293 hGPR17 (Gα-q assay)
# Assay type: cell-based
# Conditions: antagonism of MDL29,951 (~EC80) induced Ca2+ signal; cell line (HEK-293 hGPR17 or HEK-293 Suchi5 hGPR17) not given
# Summary of the method: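 Fluo-8-loaded HEK-293 hGPR17 cells (60 min dye loading, room temperature) were preincubated with compound for twenty minutes, then challenged with agonist MDL29,951 at ~EC80, 500 nM. Intracellular calcium release via Gα-q was recorded as FLIPR fluorescence for a further 2 minutes; compounds tested in duplicate.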
# T1 sequence (Q13304 whole entry): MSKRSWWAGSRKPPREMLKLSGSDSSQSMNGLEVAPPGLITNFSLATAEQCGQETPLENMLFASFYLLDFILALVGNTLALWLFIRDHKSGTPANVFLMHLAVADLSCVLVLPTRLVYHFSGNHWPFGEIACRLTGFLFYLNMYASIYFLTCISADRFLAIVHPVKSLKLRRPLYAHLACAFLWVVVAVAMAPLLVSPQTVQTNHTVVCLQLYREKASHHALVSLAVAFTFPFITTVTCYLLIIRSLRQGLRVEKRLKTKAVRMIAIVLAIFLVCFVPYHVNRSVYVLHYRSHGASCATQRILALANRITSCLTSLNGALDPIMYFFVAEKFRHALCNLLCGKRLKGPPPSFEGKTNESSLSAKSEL
row,SMILES,IC50 [nM]
1,"N#CCc1cnc(NS(=O)(=O)c2c[nH]c(-c3ccccn3)c2)c(F)c1 [Cpd 201, N-[5-(cyanomethyl)-3-fluoro-2-pyridyl]-5-(2-pyridyl)-1H-pyrrole-3-sulfonamide]",5000 to 50000
2,"O=S(=O)(Nc1cc(F)c(C(F)(F)F)cc1F)c1c[nH]c(-c2ccccc2Cl)c1 [Cpd 351, 5-(2-chlorophenyl)-N-[2,5-difluoro-4-(trifluoromethyl)phenyl]-1H-pyrrole-3-sulfonamide]",500 to 5000
3,"O=S(=O)(Nc1cc(F)c(C(F)(F)F)cc1F)c1c[nH]c(-c2c(F)ccnc2F)c1 [Cpd 557, 5-(2,4-difluoropyridin-3-yl)-N-[2,5-difluoro-4-(trifluoromethyl)phenyl]-1H-pyrrole-3-sulfonamide]",< 500
4,"CC(C)Oc1cc(F)c(NS(=O)(=O)c2c[nH]c(-c3ccccn3)c2)cc1F [Cpd 241, N-(2,5-difluoro-4-isopropoxy-phenyl)-5-(2-pyridyl)-1H-pyrrole-3-sulfonamide]",5000 to 50000
5,"COc1cc(C(F)(F)F)cnc1NS(=O)(=O)c1c[nH]c(-c2ccccc2F)c1 [Cpd 060, 5-(2-fluorophenyl)-N-[3-methoxy-5-(trifluoromethyl)pyridin-2-yl]-1H-pyrrole-3-sulfonamide]",500 to 5000
6,"O=S(=O)(Nc1cc(F)c(C(F)(F)F)cc1F)c1c[nH]c(-c2ccoc2Cl)c1 [Cpd 669, 5-(2-chlorofuran-3-yl)-N-[2,5-difluoro-4-(trifluoromethyl)phenyl]-1H-pyrrole-3-sulfonamide]",< 500
7,"O=S(=O)(Nc1cc(F)cs1)c1c[nH]c(-c2ccccc2)c1 [Cpd 593, N-(4-fluorothiophene-2-yl)-5-phenyl-1H-pyrrole-3-sulfonamide]",500 to 5000
8,"O=S(=O)(Nc1cc(F)c(C(F)(F)F)cc1F)c1c[nH]cc1-c1cccc(F)c1 [Cpd 364, N-[2,5-difluoro-4-(trifluoromethyl)phenyl]-4-(3-fluorophenyl)-1H-pyrrole-3-sulfonamide]",500 to 5000
9,"N#Cc1cc(F)c(NS(=O)(=O)c2c[nH]c(-c3ccccn3)c2)cc1Cl [Cpd 357, N-(5-chloro-4-cyano-2-fluoro-phenyl)-5-(2-pyridyl)-1H-pyrrole-3-sulfonamide]",< 500
10,"O=S(=O)(Nc1ccc(C(F)(F)F)cc1F)c1c[nH]c(-c2ccccc2)c1 [Cpd 313, N-[2-fluoro-4-(trifluoromethyl)phenyl]-5-phenyl-1H-pyrrole-3-sulfonamide]",500 to 5000
11,"N#Cc1ccc(NS(=O)(=O)c2c[nH]c(-c3ncc(F)cc3F)c2)c(F)c1 [Cpd 543, N-(4-cyano-2-fluorophenyl)-5-(3,5-difluoropyridin-2-yl)-1H-pyrrole-3-sulfonamide]",< 500
12,"O=S(=O)(Nc1cc(F)c(C(F)(F)F)cc1F)c1c[nH]c(-c2cccc(Cl)c2)c1 [Cpd 356, 5-(3-chlorophenyl)-N-[2,5-difluoro-4-(trifluoromethyl)phenyl]-1H-pyrrole-3-sulfonamide]",500 to 5000
13,"COCc1ccc(F)c(-c2cc(S(=O)(=O)Nc3cc(F)c(C(F)(F)F)cc3F)c[nH]2)c1 [Cpd 235, N-[2,5-difluoro-4-(trifluoromethyl)phenyl]-5-[2-fluoro-5-(methoxymethyl)phenyl]-1H-pyrrole-3-sulfonamide]",500 to 5000
14,"O=S(=O)(Nc1cc(F)c(OC(F)F)cc1F)c1c[nH]c(-c2ccsc2)c1 [Cpd 476, N-[4-(difluoromethoxy)-2,5-difluorophenyl]-5-thiophen-3-yl-1H-pyrrole-3-sulfonamide]",< 500
15,"Cc1cc(NS(=O)(=O)c2c[nH]c(-c3c(F)cc(F)cc3F)c2)c(F)cc1C#N [Cpd 495, N-(4-cyano-2-fluoro-5-methylphenyl)-5-(2,4,6-trifluorophenyl)-1H-pyrrole-3-sulfonamide]",500 to 5000
16,"O=S(=O)(Nc1cc(F)c(OC(F)F)cc1F)c1c[nH]c(-c2ncccc2F)c1 [Cpd 404, N-[4-(difluoromethoxy)-2,5-difluorophenyl]-5-(3-fluoropyridin-2-yl)-1H-pyrrole-3-sulfonamide]",< 500
17,"N#Cc1ccc(NS(=O)(=O)c2c[nH]c(-c3ncccc3F)c2)c(F)c1 [Cpd 090, N-(4-cyano-2-fluorophenyl)-5-(3-fluoropyridin-2-yl)-1H-pyrrole-3-sulfonamide]",< 500
18,"O=S(=O)(Nc1cc(F)c(F)cc1F)c1c[nH]c(-c2ccccc2F)c1 [Cpd 047, 5-(2-fluorophenyl)-N-(2,4,5-trifluorophenyl)-1H-pyrrole-3-sulfonamide]",500 to 5000
19,"O=S(=O)(Nc1cc(Cl)c(C(F)(F)F)cc1F)c1c[nH]c(-c2ccccn2)c1 [Cpd 379, N-[5-chloro-2-fluoro-4-(trifluoromethyl)phenyl]-5-pyridin-2-yl-1H-pyrrole-3-sulfonamide]",500 to 5000
20,"N#Cc1ccc(NS(=O)(=O)c2c[nH]c(-c3cccc4cccnc34)c2)c(F)c1 [Cpd 380, N-(4-cyano-2-fluorophenyl)-5-(guinolin-8-yl)-1H-pyrrole-3-sulfonamide]",< 500

row,SMILES,IC50 [nM]
1,"Cc1cccc(-c2cc(S(=O)(=O)Nc3ccc(C#N)cc3F)c[nH]2)c1Cl [Cpd 263, 5-(2-chloro-3-methyl-phenyl)-N-(4-cyano-2-fluoro-phenyl)-1H-pyrrole-3-sulfonamide]",500 to 5000
2,"O=S(=O)(Nc1cc(F)c(OC(F)F)cc1F)c1c[nH]c(-c2nc3ccccc3s2)c1 [Cpd 668, 5-(1,3-benzothiazol-2-yl)-N-[4-(difluoromethoxy)-2,5-difluorophenyl]-1H-pyrrole-3-sulfonamide]",500 to 5000
3,"N#Cc1ccc(NS(=O)(=O)c2c[nH]c(C3=CCCCC3)c2)c(F)c1 [Cpd 358, N-(4-cyano-2-fluoro-phenyl)-5-(cyclohexen-1-yl)-1H-pyrrole-3-sulfonamide]",< 500
4,"N#Cc1ccc(NS(=O)(=O)c2c[nH]c(-c3ccc(Cl)cc3F)c2)c(F)c1 [Cpd 045, 5-(4-chloro-2-fluoro-phenyl)-N-(4-cyano-2-fluoro-phenyl)-1H-pyrrole-3-sulfonamide]",500 to 5000
5,"N#Cc1cc(F)c(NS(=O)(=O)c2c[nH]c(-c3ncco3)c2)cc1F [Cpd 658, N-(4-cyano-2,5-difluorophenyl)-5-(1,3-oxazol-2-yl)-1H-pyrrole-3-sulfonamide]",500 to 5000
6,"O=S(=O)(Nc1ccc(OCCF)cc1F)c1c[nH]c(-c2ccccc2F)c1 [Cpd 115, N-[2-fluoro-4-(2-fluoroethoxy)phenyl]-5-(2-fluorophenyl)-1H-pyrrole-3-sulfonamide]",5000 to 50000
7,"O=S(=O)(Nc1cc(F)c(OC(F)F)cc1F)c1c[nH]c(-c2nccs2)c1 [Cpd 403, N-[4-(difluoromethoxy)-2,5-difluorophenyl]-5-(1,3-thiazol-2-yl)-1H-pyrrole-3-sulfonamide]",< 500
8,"COc1cccc(-c2cc(S(=O)(=O)Nc3ccc(C#N)cc3F)c[nH]2)c1F [Cpd 087, N-(4-cyano-2-fluoro-phenyl)-5-(2-fluoro-3-methoxy-phenyl)-1H-pyrrole-3-sulfonamide]",500 to 5000
9,"O=S(=O)(Nc1cc(F)c(C(F)(F)F)cc1F)c1c[nH]c(-c2cccc3c2OCC3)c1 [Cpd 519, N-[2,5-difluoro-4-(trifluoromethyl)phenyl]-5-(2,3-dihydro-1-benzofuran-7-yl)-1H-pyrrole-3-sulfonamide]",500 to 5000
10,"O=S(=O)(Nc1cc(F)c(C(F)(F)F)cc1F)c1c[nH]c(-c2ccc(F)cn2)c1 [Cpd 189, N-[2,5-difluoro-4-(trifluoromethyl)phenyl]-5-(5-fluoro-2-pyridyl)-1H-pyrrole-3-sulfonamide]",500 to 5000
11,"Cc1cc(NS(=O)(=O)c2c[nH]c(-c3cc(Cl)c(F)cc3F)c2)c(F)cc1C#N [Cpd 471, 5-(5-chloro-2,4-difluorophenyl)-N-(4-cyano-2-fluoro-5-methylphenyl)-1H-pyrrole-3-sulfonamide]",500 to 5000
12,"CN(C)c1cccc(-c2cc(S(=O)(=O)Nc3ccc(C#N)cc3F)c[nH]2)c1 [Cpd 521, N-(4-cyano-2-fluorophenyl)-5-[3-(dimethylamino)phenyl]-1H-pyrrole-3-sulfonamide]",5000 to 50000
13,"N#Cc1cc(F)c(NS(=O)(=O)c2c[nH]c(-c3cncs3)c2)cc1F [Cpd 647, N-(4-cyano-2,5-difluorophenyl)-5-(1,3-thiazol-5-yl)-1H-pyrrole-3-sulfonamide]",< 500
14,"COc1cc(C(F)(F)F)cnc1NS(=O)(=O)c1c[nH]c(-c2ccccc2)c1 [Cpd 175, N-[3-methoxy-5-(trifluoromethyl)-2-pyridyl]-5-phenyl-1H-pyrrole-3-sulfonamide]",500 to 5000
15,"O=S(=O)(Nc1cc(F)c(OC(F)F)cc1F)c1c[nH]cc1Cc1cccs1 [Cpd 452, N-[4-(difluoromethoxy)-2,5-difluorophenyl]-4-(thiophen-2-ylmethyl)-1H-pyrrole-3-sulfonamide]",< 500
16,"O=C1CCC(c2cc(S(=O)(=O)Nc3cc(F)c(C(F)(F)F)cc3F)c[nH]2)C1 (stereo not shown) [Cpd 520, N-(2,5-difluoro-4-(trifluoromethyl)phenyl)-5-(3-oxocyclopentyl)-1H-pyrrole-3-sulfonamide]",5000 to 50000
17,"O=S(=O)(Nc1cc(F)c(F)cc1F)c1c[nH]c(-c2ccc(F)cc2)c1 [Cpd 109, 5-(4-fluorophenyl)-N-(2,4,5-trifluorophenyl)-1H-pyrrole-3-sulfonamide]",5000 to 50000
18,"COc1cccc(-c2cc(S(=O)(=O)Nc3ccc(C#N)cc3F)c[nH]2)c1 [Cpd 010, N-(4-cyano-2-fluoro-phenyl)-5-(3-methoxyphenyl)-1H-pyrrole-3-sulfonamide]",< 500
19,"Cc1nc(-c2cc(S(=O)(=O)Nc3cc(F)c(C(F)(F)F)cc3F)c[nH]2)cs1 [Cpd 595, N-[2,5-difluoro-4-(trifluoromethyl)phenyl]-5-(2-methyl-1,3-thiazol-4-yl)-1H-pyrrole-3-sulfonamide]",500 to 5000
20,"COc1nccc(F)c1-c1cc(S(=O)(=O)Nc2ccc(Cl)cc2F)c[nH]1 [Cpd 227, N-(4-chloro-2-fluoro-phenyl)-5-(4-fluoro-2-methoxy-3-pyridyl)-1H-pyrrole-3-sulfonamide]",500 to 5000
